In PubChem BioAssay AID330 (DTP/NCI, 2004):
Values joined by “and” are separate entries in the source; they are usually repeats but may differ in a detail not shown here. Identical values can stand only once. Toxic doses and inconclusive results are not listed. How the source made its calls: active means survival T/C of 150% or more; inactive means T/C below 125% in these data.

Test system: P388 leukemia ip, CD2F1 mice, survival T/C
Test: NCI In Vivo Anticancer Drug Screen. Data for tumor model P388 Leukemia (intraperitoneal) in CD2F1 (CDF1) mice
Details: endpoint: median survival time, higher = longer survival
How it was run: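 Mice carrying the transplanted tumor received test compound or vehicle. Survival was recorded in each group, and the value is the treated-group measurement divided by that of the vehicle-treated control group.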

[1] = dose: 12.5 mg/kg/injection, schedule: Q01DX009 (ip), vehicle: other
[2] = dose: 25.0 mg/kg/injection, schedule: Q01DX009 (ip), vehicle: other
[3] = dose: 50.0 mg/kg/injection, schedule: Q01DX009 (ip), vehicle: Klucel (hydroxypropylcellulose) (HPC)
[4] = dose: 100.0 mg/kg/injection, schedule: Q01DX009 (ip), vehicle: Klucel (hydroxypropylcellulose) (HPC)
[5] = dose: 100.0 mg/kg/injection, schedule: Q01DX009 (ip), vehicle: saline with Tween-80
[6] = dose: 200.0 mg/kg/injection, schedule: Q01DX009 (ip), vehicle: saline with Tween-80
[7] = dose: 50.0 mg/kg/injection, schedule: Q01DX009 (ip), vehicle: saline
[8] = dose: 50.0 mg/kg/injection, schedule: Q01DX005 (ip), vehicle: saline
[9] = dose: 100.0 mg/kg/injection, schedule: Q01DX005 (ip), vehicle: saline
[10] = dose: 200.0 mg/kg/injection, schedule: Q01DX005 (ip), vehicle: saline
[11] = dose: 50.0 mg/kg/injection, schedule: Q01DX005 (ip), vehicle: saline with Tween-80
[12] = dose: 100.0 mg/kg/injection, schedule: Q01DX005 (ip), vehicle: saline with Tween-80
[13] = dose: 200.0 mg/kg/injection, schedule: Q01DX005 (ip), vehicle: saline with Tween-80
[14] = dose: 12.5 mg/kg/injection, schedule: Q01DX005 (ip), vehicle: saline with Tween-80
[15] = dose: 25.0 mg/kg/injection, schedule: Q01DX005 (ip), vehicle: saline with Tween-80
[16] = dose: 60.0 mg/kg/injection, schedule: Q01DX005 (ip), vehicle: saline with Tween-80

Measured: T/C

CC1(C)OC1C1CC(C2CCC3(C)C4=CCC5C(C)(C)C(=O)CCC5(C)C4CCC23C)C(O)O1 (stereo unspecified)
inactive: dose: 1.5 mg/kg/injection, schedule: Q01DX009 (ip), vehicle: Klucel (hydroxypropylcellulose) (HPC) 90 % of control | dose: 3.0 mg/kg/injection, schedule: Q01DX009 (ip), vehicle: Klucel (hydroxypropylcellulose) (HPC) 94 % of control | dose: 6.0 mg/kg/injection, schedule: Q01DX009 (ip), vehicle: Klucel (hydroxypropylcellulose) (HPC) 103 % of control | dose: 12.0 mg/kg/injection, schedule: Q01DX009 (ip), vehicle: Klucel (hydroxypropylcellulose) (HPC) 100 % of control

O=CN1CCc2cc3c(cc2C1Cc1cc2c(cc1Br)OCO2)OCO3 (stereo unspecified)
inactive: dose: 25.0 mg/kg/injection, schedule: Q01DX001 (ip), vehicle: saline + alcohol 99 % of control | dose: 50.0 mg/kg/injection, schedule: Q01DX001 (ip), vehicle: saline + alcohol 103 % of control | dose: 100.0 mg/kg/injection, schedule: Q01DX001 (ip), vehicle: saline + alcohol 100 % of control

CC1CCCCC1=C(C#N)C#N (stereo unspecified)
inactive: [1] 95 % of control | [2] 100 % of control

CCCCCCCCCc1cc(=O)n(-c2ccc(C(=O)OCC)cc2)n1C
inactive: [3] 104 % of control | [4] 90 % of control | dose: 200.0 mg/kg/injection, schedule: Q01DX009 (ip), vehicle: Klucel (hydroxypropylcellulose) (HPC) 93 % of control

CCN(CC)C(=S)Sc1nsc(SC(=S)N(CC)CC)c1C#N
inactive: dose: 50.0 mg/kg/injection, schedule: Q01DX009 (ip), vehicle: saline with Tween-80 94 % of control | [5] 94 % of control | [6] 94 % of control

CCCCCCCCOS(=O)(=O)c1ccc([N+](C)(C)C)cc1
inactive: dose: 12.5 mg/kg/injection, schedule: Q01DX009 (ip), vehicle: saline 103 % of control | dose: 25.0 mg/kg/injection, schedule: Q01DX009 (ip), vehicle: saline 105 % of control | [7] 110 % of control

[NH-]c1ncnc2[nH]c(C[N-]C(Cc3cnc[nH]3)C(=O)O)nc12.[Pd+2] (stereo unspecified)
inactive: [8] 90 % of control | [9] 97 % of control | [10] 94 % of control

COc1ccc(C(=O)O)cc1
inactive: [5] 101 % of control | [6] 96 % of control | dose: 400.0 mg/kg/injection, schedule: Q01DX009 (ip), vehicle: saline with Tween-80 109 % of control

CC1(C)C2CCC(O2)C(C)(C)C2CCC(O2)C(C)(C)C2CCC(O2)C(C)(C)C2CCC1O2
inactive: [11] 102 % of control | [12] 100 % of control | [13] 95 % of control

CC(C)CNc1ncnc2n[nH]nc12
inactive: [11] 100 % of control | [12] 103 % of control | [13] 100 % of control

CC(NC(=O)OC(C)(C)C)C(=O)NC(C)C(=O)NC(C)C(=O)OCc1ccccc1 (stereo unspecified)
inactive: [11] 99 % of control | [12] 99 % of control | [13] 101 % of control

O=NN(CC1(O)OCC(O)C(O)C1O)C(Cc1ccccc1)C(=O)O (stereo unspecified)
inactive: [8] 104 % of control | [9] 103 % of control | [10] 97 % of control

CCN(CC)CCSSCCN(CC)CC.[Cl][Mn][Cl]
inactive: dose: 50.0 mg/kg/injection, schedule: Q01DX005 (ip), vehicle: Klucel (hydroxypropylcellulose) (HPC) 114 % of control | dose: 100.0 mg/kg/injection, schedule: Q01DX005 (ip), vehicle: Klucel (hydroxypropylcellulose) (HPC) 117 % of control

CN(C)c1ccc2c(Cl)ccnc2c1
inactive: [14] 100 % of control | [15] 103 % of control | [11] 103 % of control and 86 % of control

CCC[CH2][Sn]([Cl])([CH2]CCC)[S]/C(C#N)=N/N=C/c1ccc(N(C)C)cc1
inactive: dose: 15.0 mg/kg/injection, schedule: Q01DX005 (ip), vehicle: saline with Tween-80 106 % of control | [16] 122 % of control

OCC1OC2C(NC(=S)N2c2ccccc2)C(O)C1O (stereo unspecified)
inactive: [16] 101 % of control | dose: 120.0 mg/kg/injection, schedule: Q01DX005 (ip), vehicle: saline with Tween-80 98 % of control | dose: 240.0 mg/kg/injection, schedule: Q01DX005 (ip), vehicle: saline with Tween-80 104 % of control

O/N=C/c1c(-c2ccccc2)nc2n1CCS2
inactive: dose: 100.0 mg/kg/injection, schedule: Q04DX002 (ip), vehicle: Klucel (hydroxypropylcellulose) (HPC) 101 % of control | dose: 200.0 mg/kg/injection, schedule: Q04DX002 (ip), vehicle: Klucel (hydroxypropylcellulose) (HPC) 99 % of control | dose: 400.0 mg/kg/injection, schedule: Q04DX002 (ip), vehicle: Klucel (hydroxypropylcellulose) (HPC) 98 % of control

COC1OC(C)C(=O)C2OC12 (stereo unspecified)
inactive: [3] 112 % of control | [4] 116 % of control

C/C(=N\NC(=S)N1CCCC1)c1cnccn1
inactive: dose: 6.25 mg/kg/injection, schedule: Q01DX005 (ip), vehicle: saline with Tween-80 100 % of control | [14] 103 % of control | [15] 100 % of control

CC(=O)OC1OC(COS(C)(=O)=O)C(OC(C)=O)C(OS(C)(=O)=O)C1OC(C)=O (stereo unspecified)
inactive: [7] 92 % of control | dose: 100.0 mg/kg/injection, schedule: Q01DX009 (ip), vehicle: saline 118 % of control | dose: 400.0 mg/kg/injection, schedule: Q01DX009 (ip), vehicle: saline 88 % of control

C=C1C(=O)OC2/C=C(\C)CC/C=C(/C=O)CC(OC(=O)C(C)C)C12 (stereo unspecified)
inactive: dose: 5.0 mg/kg/injection, schedule: Q01DX009 (ip), vehicle: other 100 % of control | dose: 10.0 mg/kg/injection, schedule: Q01DX009 (ip), vehicle: other 91 % of control | dose: 20.0 mg/kg/injection, schedule: Q01DX009 (ip), vehicle: other 112 % of control

S=C(Nc1ccc(Cl)c(Cl)c1)SCc1ccc2c(c1)OCO2
inactive: dose: 12.5 mg/kg/injection, schedule: Q01DX009 (ip), vehicle: Klucel (hydroxypropylcellulose) (HPC) 116 % of control | dose: 25.0 mg/kg/injection, schedule: Q01DX009 (ip), vehicle: Klucel (hydroxypropylcellulose) (HPC) 120 % of control | [3] 121 % of control | [4] 112 % of control and 97 % of control

O=S1(=O)C2CCC(Br)C1CCC2Br (stereo unspecified)
inactive: dose: 1.56 mg/kg/injection, schedule: Q01DX005 (ip), vehicle: Klucel (hydroxypropylcellulose) (HPC) 99 % of control | dose: 3.12 mg/kg/injection, schedule: Q01DX005 (ip), vehicle: Klucel (hydroxypropylcellulose) (HPC) 103 % of control | dose: 6.25 mg/kg/injection, schedule: Q01DX005 (ip), vehicle: Klucel (hydroxypropylcellulose) (HPC) 100 % of control

Cn1c(=O)c2c(ncn2C)n(C)c1=O.[Cl][Pt]([Cl])[Cl]
inactive: dose: 6.25 mg/kg/injection, schedule: Q01DX005 (ip), vehicle: water 116 % of control | dose: 12.5 mg/kg/injection, schedule: Q01DX005 (ip), vehicle: water 116 % of control and 124 % of control | dose: 25.0 mg/kg/injection, schedule: Q01DX005 (ip), vehicle: water 120 % of control | dose: 50.0 mg/kg/injection, schedule: Q01DX005 (ip), vehicle: water 121 % of control | dose: 100.0 mg/kg/injection, schedule: Q01DX005 (ip), vehicle: water 121 % of control

C=c1[nH]c(=O)c(=C)[nH]c1=O
inactive: [1] 94 % of control | [2] 90 % of control | dose: 50.0 mg/kg/injection, schedule: Q01DX009 (ip), vehicle: other 99 % of control | dose: 100.0 mg/kg/injection, schedule: Q01DX009 (ip), vehicle: other 106 % of control
